# Measurements published in patent publication US20170239283A1, “USE OF STING AGONISTS TO TREAT VIRALLY-INDUCED AND PRE-MALIGNANT GROWTHS” (Providence Health & Services - Oregon, priority 2016, published 2017).
# Columns and labels:
# [1] = tested on: Murine bone marrow-derived macrophages; test: M1/M2 differentiation of macrophages, Western blotting for iNOS and arginase I; assay type: cell-based; conditions: 24 hours treatment, then IFNγ (20 ng/ml) or IL-4 (20 ng/ml)
# Description: FIG. 5 is a digital image of a Western blot for iNOS, Arginase I, and GAPDH in murine bone marrow-derived macrophages treated with compounds targeting TLR4 (LPS), STING (CDA), NOD2 (PGNECndss), TLR7 (Imiquimod), TLR9 (class A CpG), or RIGI (ppp5′dsRNA), then treated with IFNγ (20 ng/ml) or IL-4 (20 ng/ml).
# Murine bone marrow-derived macrophages were treated for 24 hours with a range of immunological adjuvants targeting STING (CDA), NOD2 (PGNECndss), TLR7 (imiquimod), TLR9 (class A CpG), or RIGI (ppp5′dsRNA), then treated with IFNγ (20ng/ml) or IL-4 (20ng/ml) to direct M1 or M2 differentiation, respectively. Ligation of TLR4 (LPS) was a positive control. M1 differentiation was distinguished by expression of iNOS, and M2 differentiation by expression of arginase I as measured by Western blotting.
# papilloma [2] = test: CD3+ T cell infiltration and histology of treated papilloma; assay type: in vivo, mice; conditions: for infiltrating CD3+ T cells in papilloma: 24 hours after injection of 25 μg
# Description: FIGS. 4A-C are a series of digital images showing infiltration of T cells following treatment with STING ligand. […] Sections were stained for CD3 and DAPI nuclear counterstain. […] Both papilloma sites were harvested 24 hours later and stained for CD3 and DAPI nuclear counterstain on the i) treated and ii) untreated opposite side papilloma.
# To investigate the effect of treatment on T cell infiltration, which we and others have shown play a role in clearance of advanced cancers following administration of STING ligands (Baird et al., Cancer Res. 76:50-61, 2016; Corrales et al., Cell Rep. 11:1018-1030, 2015), papilloma were stained for infiltrating CD3^+ T cells.
# papilloma [3] = assay type: in vivo, mice; conditions: for papilloma size: larger 3-15 mm papilloma, 25 μg injected on d0, d1, d7 and d8
# Description: Pdx-Cre^+/− (Stock190 014647, Jackson Laboratories, Bar Harbor, Me.), Kras^(G12D)+/− (Stock#008179, Jackson Laboratories), and Trp53^(R172H)+/− (Stock#01XM2, NCI Fredrick Mouse Repository) mice were crossed to generate Pdx-Cre^+/− Kras ^(G12D)+/− Trp53^(R172H)+/− that generate pancreatic tumors (Hingorani et al., Cancer Cell 7:469-483, 2005). At variable penetrance, mice develop papilloma of the face and anogenital region (Hingorani et al., Cancer Cell 7:469-483, 2005; Gades et al., Comp. Med. 58:271-275, 2008). Mice bearing papilloma with no evidence of pancreatic tumors and less than 90 days of age were accrued to this study. Masses were treated by injection of 25 μg of c-di-CDG (Invivogen, San Diego, Calif., Catalog No. tlrl-naldg), Imiquimod (Invivogen) or PBS vehicle.
# STING ligands were administered into the papilloma by direct injection with a total dose of 25 μg administered in a 25 μl injection volume. In the control case, 25 μg of Imiquimod was administered using the same technique. For larger papillomas, the injection was split between different sites within the same growth. The total dose to the growth remained 25 μg in each case. The animals were retreated on day 7 with a second cycle of injections.
# Rapid alterations in small papilloma to resemble normal skin were observed within 18 hours of treatment (FIGS. 2A and B). In pilot studies, mice bearing papilloma were randomly assigned to treatment with the STING ligand c-di-GMP (CDG) or PBS vehicle control. In an example of a mouse with two small papilloma on the face, one was treated by direct injection of CDG, and the other given vehicle control (FIG. 2A, left). The CDG-injected papilloma rapidly reverted to normal skin within 18 hours (FIG. 2A, right). […] Injection of STING ligand into histologically normal skin at distant sites or in normal mice had no observable effect (not shown).
# In addition, very large papilloma was treated with two cycles of treatment separated by 1 week, resulting in dramatic tumor regression (FIG. 3A). […] We tested treatment of larger, 3-15 mm papilloma with STING ligands. […] Therefore, we developed a treatment course consisting of injections on d0 and d1, and again on d7 and d8 as the papilloma decreased in size (FIG. 3B). Mice were randomized to receive CDG, to conventional treatment with the TLR7 ligand imiquimod, or PBS vehicle.
# cervical dysplasia = conditions: added to excisional therapies, randomized clinical trials; cited from earlier work
Compound,M1 (iNOS) / M2 (arginase I) differentiation of macrophages [1],infiltrating CD3+ T cells in papilloma (papilloma [2]),papilloma size (papilloma [3]),rate of recurrence of cervical dysplasia (cervical dysplasia),further results
"Nc1ncnc2c1ncn2[C@@H]1O[C@@H]2COP(=O)(O)O[C@H]3[C@@H](O)[C@H](n4cnc5c(N)ncnc54)O[C@@H]3COP(=O)(O)O[C@H]2[C@H]1O [CDA, cyclic diadenylate monophosphate]",prevented M2 differentiation by IL-4 without driving M1 differentiation,,,,
"Nc1nc2c(ncn2[C@@H]2O[C@@H]3COP(=O)(O)O[C@H]4[C@@H](O)[C@H](n5cnc6c(=O)[nH]c(N)nc65)O[C@@H]4COP(=O)(O)O[C@H]3[C@H]2O)c(=O)[nH]1 [CDG, cyclic diguanylate monophosphate]",,CD3^+ T cells were found associated with the normalized skin epithelium,significantly decreased papilloma size,,"T cells in normalized skin (papilloma [2]; 14 days following treatment): enriched in the normalized skin; T cell infiltration in treated versus untreated papilloma of the same mouse (papilloma [2]; mice with more than one papilloma, one treated, 24 hours): T cell infiltration and control only in the treated papilloma; toxicity (papilloma [3]; 25 μg direct injection): non-toxic at these doses; effect of a single injection on larger papilloma (papilloma [3]; 3-15 mm papilloma, single injection): rapid loss of papilloma around the injection site, but these did not fully regress; appearance of injection site (papilloma [3]; 18 hours after injection into small papilloma): slight reddening; complete regression of papilloma (papilloma [3]; larger papilloma, injections on d0, d1, d7 and d8): complete regression of some papilloma; time for injected small papilloma to revert to normal skin (papilloma [3]; mouse with two small papilloma on the face, direct injection of 25 μg): ≤ 18 h; regression of experimental papilloma (papilloma [3]; small papilloma, direct injection of 25 μg): rapid, site-specific regression of experimental papilloma"
CC(C)Cn1cnc2c(N)nc3ccccc3c21 [imiquimod],can drive macrophages into either M1 or M2 differentiation,Few to no T cells were detected,did not significantly affect the size of the papilloma,neither approach impacts the rate of recurrence,
interferon alpha,,,,neither approach impacts the rate of recurrence,
